Results reported in patent publication US7414040B2, “Thrombopoietin mimetics” (SmithKline Beecham Corporation, priority 2002, dated 2008).

Target: T1, human Tpo-R (Homo sapiens, UniProt P40238)
T1 construct: expressed in transfected cells; host or cells: murine BaF3 cell line
T1 sequence (P40238 26-635): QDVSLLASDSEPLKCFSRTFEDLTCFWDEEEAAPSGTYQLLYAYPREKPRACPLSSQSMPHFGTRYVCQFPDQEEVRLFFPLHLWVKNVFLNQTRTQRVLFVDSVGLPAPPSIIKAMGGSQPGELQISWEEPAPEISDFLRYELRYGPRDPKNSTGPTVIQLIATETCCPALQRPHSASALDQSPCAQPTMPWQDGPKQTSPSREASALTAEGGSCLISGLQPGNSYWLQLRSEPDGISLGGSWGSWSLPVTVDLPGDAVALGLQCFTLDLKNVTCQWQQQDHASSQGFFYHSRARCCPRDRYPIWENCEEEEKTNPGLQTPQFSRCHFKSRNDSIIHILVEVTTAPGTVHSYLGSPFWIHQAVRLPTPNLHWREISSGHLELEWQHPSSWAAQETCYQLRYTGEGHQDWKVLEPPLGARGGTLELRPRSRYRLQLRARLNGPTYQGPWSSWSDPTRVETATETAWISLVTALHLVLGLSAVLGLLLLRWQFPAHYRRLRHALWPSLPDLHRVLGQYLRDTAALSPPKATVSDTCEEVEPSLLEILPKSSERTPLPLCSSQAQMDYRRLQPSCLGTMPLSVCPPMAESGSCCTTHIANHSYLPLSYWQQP
Test: BaF3/hTPO-R in vitro proliferation assay
Type: cell-based
Details: murine BaF3 cell line transfected with human Tpo-R
Experimental: Compounds of the present invention were tested for potency as mimetics of TPO in an in vitro proliferation assay using the murine BaF3 cell line transfected with human Tpo-R. Survival and growth is dependent on the presence of TPO.

- EC50: 800 nM
- activity, % TPO (relative to TPO): 160 % TPO
Compound: CC1=NN(C2CCCCC2)C(=O)C1=NNc1cccc(-c2cccc(C(=O)O)c2)c1O [Example 1, 3′-[N′-(1-cyclohexyl-3-methyl-5-oxo-1,5-dihydro-pyrazol-4-ylidene)-hydrazino]-2′-hydroxy-biphenyl-3-carboxylic acid]
